Laboratory results: PMC6407913, “DREADD Agonist 21 Is an Effective Agonist for Muscarinic-Based DREADDs in Vitro and in Vivo” (ACS Pharmacology & Translational Science, 2018)
“And” between values parts separate entries of the source, which are not always exact repeats. Identical values can stand only once. Like-named read-outs stand apart in the source and are kept apart here.

Tests used:
Assay in all cases: NIMH PDSP radioligand binding, membranes
[1] = molecular target: T1, 5-HT1A (Homo sapiens, UniProt P08908)
T1 construct: NIMH PDSP
T1 sequence (P08908 whole entry, species assumed): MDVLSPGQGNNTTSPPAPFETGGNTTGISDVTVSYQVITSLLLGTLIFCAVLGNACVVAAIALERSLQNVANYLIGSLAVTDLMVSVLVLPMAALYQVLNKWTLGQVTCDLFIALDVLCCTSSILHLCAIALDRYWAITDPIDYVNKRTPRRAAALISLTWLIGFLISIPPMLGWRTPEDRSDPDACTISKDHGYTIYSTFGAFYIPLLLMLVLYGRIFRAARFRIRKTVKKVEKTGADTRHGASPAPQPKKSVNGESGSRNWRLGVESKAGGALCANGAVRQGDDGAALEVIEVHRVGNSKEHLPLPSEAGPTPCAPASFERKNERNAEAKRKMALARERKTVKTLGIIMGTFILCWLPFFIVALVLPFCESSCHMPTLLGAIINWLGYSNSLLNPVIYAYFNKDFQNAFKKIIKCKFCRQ
Experimental: (§1) Radioligand binding assays with membrane preparations to determine binding affinity were carried out as outlined before[540] and by the National Institute of Mental Health’s Psychoactive Drug Screening Program (NIMH PDSP) (https://pdsp.unc.edu/), Contract # HHSN-271–2013–00017-C. The NIMH PDSP is Directed by B.L.R. at the University of North Carolina at Chapel Hill, Chapel Hill, NC, and Project Officer Jamie Driscoll at NIMH, Bethesda, MD.

[2] = molecular target: H3 (Homo sapiens, UniProt Q9Y5N1)
H3, sequence (Q9Y5N1 whole entry): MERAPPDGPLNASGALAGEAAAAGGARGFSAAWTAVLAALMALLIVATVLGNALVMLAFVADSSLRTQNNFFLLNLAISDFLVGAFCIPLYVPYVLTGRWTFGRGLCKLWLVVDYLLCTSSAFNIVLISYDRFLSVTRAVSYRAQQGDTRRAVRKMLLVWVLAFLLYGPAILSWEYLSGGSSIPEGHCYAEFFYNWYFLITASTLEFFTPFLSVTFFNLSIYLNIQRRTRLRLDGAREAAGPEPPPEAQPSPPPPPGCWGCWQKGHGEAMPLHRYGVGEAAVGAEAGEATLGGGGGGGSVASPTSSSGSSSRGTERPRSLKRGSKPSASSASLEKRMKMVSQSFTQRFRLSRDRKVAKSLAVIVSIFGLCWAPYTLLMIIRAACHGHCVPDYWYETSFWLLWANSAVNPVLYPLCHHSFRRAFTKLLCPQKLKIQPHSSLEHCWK
Experimental: as §1

[3] = molecular target: T2, Alpha2A (Homo sapiens, UniProt P08913)
T2 construct: NIMH PDSP
T2 sequence (P08913 whole entry): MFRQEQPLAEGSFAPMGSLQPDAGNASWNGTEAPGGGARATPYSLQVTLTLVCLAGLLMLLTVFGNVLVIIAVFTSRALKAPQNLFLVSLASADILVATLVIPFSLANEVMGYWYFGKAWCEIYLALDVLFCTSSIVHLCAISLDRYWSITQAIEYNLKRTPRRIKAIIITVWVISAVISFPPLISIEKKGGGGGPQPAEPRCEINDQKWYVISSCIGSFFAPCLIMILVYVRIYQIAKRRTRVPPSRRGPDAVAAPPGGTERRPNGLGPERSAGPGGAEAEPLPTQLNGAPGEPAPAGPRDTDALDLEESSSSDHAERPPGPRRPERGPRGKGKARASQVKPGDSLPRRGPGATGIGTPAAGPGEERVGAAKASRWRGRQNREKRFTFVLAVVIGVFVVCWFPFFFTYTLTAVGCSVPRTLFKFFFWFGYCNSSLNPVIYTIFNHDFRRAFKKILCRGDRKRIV
Experimental: as §1

[4] = molecular target: T3, 5-HT7 (Homo sapiens, UniProt P34969)
T3 construct: NIMH PDSP
Experimental: as §1

[5] = molecular target: BZP
Experimental: as §1

[6] = molecular target: T4, 5-HT2C (Homo sapiens, UniProt P28335)
T4 sequence (P28335 33-458): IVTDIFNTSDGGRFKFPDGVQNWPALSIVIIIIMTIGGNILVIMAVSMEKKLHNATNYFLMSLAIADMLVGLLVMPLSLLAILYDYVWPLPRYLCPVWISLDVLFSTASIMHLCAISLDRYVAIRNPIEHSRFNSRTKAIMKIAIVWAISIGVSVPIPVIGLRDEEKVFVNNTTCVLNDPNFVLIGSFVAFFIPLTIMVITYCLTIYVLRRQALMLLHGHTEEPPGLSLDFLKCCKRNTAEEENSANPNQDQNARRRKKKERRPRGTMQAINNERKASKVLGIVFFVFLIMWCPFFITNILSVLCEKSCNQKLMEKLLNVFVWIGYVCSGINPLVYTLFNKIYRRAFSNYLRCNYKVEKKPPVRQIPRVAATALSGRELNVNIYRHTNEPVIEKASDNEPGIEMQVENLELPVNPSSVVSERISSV
Experimental: as §1

[7] = molecular target: DOR (Homo sapiens, UniProt P41143)
DOR, sequence (P41143 whole entry): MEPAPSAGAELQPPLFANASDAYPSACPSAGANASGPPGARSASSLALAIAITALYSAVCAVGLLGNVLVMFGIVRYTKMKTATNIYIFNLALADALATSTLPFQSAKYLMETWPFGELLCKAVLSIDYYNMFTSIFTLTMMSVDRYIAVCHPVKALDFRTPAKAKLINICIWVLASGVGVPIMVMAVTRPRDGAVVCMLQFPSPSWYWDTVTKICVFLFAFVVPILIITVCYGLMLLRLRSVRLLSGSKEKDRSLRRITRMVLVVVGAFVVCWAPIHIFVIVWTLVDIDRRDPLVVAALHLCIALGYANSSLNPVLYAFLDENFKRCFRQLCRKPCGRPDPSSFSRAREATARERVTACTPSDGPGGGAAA
Experimental: as §1

[8] = molecular target: T5, Alpha2C (Homo sapiens, UniProt P18825)
T5 construct: NIMH PDSP
Experimental: as §1

[9] = molecular target: 5-HT2A (Homo sapiens, UniProt P28223)
5-HT2A, sequence (P28223 whole entry, species assumed): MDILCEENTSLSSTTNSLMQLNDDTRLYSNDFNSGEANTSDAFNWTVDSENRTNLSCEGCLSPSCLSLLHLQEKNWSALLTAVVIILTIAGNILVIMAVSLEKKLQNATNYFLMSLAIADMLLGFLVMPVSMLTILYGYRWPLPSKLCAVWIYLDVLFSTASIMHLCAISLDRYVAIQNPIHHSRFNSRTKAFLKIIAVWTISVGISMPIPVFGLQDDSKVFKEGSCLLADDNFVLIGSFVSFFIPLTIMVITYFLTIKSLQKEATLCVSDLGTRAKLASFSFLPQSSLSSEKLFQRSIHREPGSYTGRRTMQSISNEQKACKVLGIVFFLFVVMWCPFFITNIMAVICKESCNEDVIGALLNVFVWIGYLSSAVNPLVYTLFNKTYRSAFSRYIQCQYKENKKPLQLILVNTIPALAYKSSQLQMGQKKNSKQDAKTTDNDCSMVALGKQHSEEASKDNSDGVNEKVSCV
Experimental: as §1

[10] = molecular target: 5-HT1D (Homo sapiens, UniProt P28221)
5-HT1D, sequence (P28221 whole entry, species assumed): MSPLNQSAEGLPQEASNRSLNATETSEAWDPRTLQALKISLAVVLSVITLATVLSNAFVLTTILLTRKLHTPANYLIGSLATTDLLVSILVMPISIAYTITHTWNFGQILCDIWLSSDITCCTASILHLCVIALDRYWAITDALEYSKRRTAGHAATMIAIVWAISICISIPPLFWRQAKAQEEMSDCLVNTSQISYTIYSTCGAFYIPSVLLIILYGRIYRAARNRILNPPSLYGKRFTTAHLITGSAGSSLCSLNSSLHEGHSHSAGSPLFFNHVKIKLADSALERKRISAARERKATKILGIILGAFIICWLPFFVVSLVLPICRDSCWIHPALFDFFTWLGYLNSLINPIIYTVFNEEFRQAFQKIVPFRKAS
Experimental: as §1

[11] = molecular target: D5 (Homo sapiens, UniProt P21918)
D5, sequence (P21918 whole entry): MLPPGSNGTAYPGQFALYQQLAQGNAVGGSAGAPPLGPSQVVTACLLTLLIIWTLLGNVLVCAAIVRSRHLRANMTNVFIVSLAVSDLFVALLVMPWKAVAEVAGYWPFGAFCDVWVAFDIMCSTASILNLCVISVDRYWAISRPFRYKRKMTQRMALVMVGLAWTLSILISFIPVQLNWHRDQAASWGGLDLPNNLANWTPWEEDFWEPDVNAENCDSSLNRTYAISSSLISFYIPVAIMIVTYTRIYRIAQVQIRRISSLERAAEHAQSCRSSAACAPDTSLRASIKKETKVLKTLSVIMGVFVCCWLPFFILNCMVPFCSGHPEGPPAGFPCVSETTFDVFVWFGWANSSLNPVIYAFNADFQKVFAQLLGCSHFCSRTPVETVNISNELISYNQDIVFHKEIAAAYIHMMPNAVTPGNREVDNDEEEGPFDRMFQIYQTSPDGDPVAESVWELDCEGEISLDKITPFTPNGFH
Experimental: as §1

[12] = molecular target: KOR (Homo sapiens, UniProt P41145)
KOR, sequence (P41145 whole entry): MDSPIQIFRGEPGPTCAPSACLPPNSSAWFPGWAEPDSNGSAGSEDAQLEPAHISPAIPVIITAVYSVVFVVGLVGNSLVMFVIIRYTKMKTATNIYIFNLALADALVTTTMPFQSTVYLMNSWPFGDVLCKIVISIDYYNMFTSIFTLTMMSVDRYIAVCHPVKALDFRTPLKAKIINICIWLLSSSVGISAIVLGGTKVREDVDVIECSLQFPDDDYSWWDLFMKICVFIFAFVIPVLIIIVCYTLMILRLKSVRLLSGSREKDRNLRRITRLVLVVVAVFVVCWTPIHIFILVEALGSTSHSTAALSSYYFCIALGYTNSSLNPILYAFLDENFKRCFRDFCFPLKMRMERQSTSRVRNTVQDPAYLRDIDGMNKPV
Experimental: as §1

[13] = molecular target: H1 (Homo sapiens, UniProt P35367)
H1, sequence (P35367 whole entry): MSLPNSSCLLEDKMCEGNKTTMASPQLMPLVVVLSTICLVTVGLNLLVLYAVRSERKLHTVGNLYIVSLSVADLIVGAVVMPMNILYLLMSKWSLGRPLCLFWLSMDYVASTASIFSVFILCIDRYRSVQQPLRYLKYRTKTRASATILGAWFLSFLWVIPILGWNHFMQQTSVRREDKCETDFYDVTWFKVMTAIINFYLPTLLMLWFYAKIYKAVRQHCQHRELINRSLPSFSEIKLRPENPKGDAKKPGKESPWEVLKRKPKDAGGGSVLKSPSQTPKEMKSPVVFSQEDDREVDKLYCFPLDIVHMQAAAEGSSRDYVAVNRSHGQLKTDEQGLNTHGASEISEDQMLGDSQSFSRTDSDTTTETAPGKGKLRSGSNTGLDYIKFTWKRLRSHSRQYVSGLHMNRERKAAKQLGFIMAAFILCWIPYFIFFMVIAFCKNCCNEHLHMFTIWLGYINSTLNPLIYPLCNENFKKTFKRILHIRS
Experimental: as §1

[14] = molecular target: CB1 (Homo sapiens, UniProt P21554)
Experimental: as §1

[15] = molecular target: H2 (Homo sapiens, UniProt P25021)
H2, sequence (P25021 whole entry): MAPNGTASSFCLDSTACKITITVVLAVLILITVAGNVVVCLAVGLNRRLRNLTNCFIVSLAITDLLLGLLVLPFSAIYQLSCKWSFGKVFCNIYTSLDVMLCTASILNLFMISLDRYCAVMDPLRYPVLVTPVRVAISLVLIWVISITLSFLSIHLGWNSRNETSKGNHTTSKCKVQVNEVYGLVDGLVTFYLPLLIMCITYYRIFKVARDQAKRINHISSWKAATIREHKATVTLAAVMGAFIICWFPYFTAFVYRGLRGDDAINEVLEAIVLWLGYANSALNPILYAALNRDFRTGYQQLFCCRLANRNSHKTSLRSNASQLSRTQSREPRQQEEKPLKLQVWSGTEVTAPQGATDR
Experimental: as §1

[16] = molecular target: M2 (Homo sapiens, UniProt P08172)
M2, sequence (P08172 whole entry): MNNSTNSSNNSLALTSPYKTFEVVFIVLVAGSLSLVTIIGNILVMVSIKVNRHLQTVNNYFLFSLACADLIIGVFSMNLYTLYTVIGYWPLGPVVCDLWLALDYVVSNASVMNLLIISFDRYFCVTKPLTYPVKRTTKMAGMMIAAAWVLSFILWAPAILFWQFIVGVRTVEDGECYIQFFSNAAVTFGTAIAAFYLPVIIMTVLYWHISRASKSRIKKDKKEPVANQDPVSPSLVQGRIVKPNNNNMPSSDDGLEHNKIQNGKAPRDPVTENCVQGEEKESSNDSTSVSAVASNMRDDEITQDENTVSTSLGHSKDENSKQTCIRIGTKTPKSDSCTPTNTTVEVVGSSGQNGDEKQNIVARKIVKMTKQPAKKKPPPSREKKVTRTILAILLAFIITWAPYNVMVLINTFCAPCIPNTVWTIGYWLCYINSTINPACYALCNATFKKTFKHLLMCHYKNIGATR
Experimental: as §1

[17] = molecular target: T6, Alpha 1B (Homo sapiens, UniProt P35368)
T6 construct: NIMH PDSP
T6 sequence (P35368 1-520): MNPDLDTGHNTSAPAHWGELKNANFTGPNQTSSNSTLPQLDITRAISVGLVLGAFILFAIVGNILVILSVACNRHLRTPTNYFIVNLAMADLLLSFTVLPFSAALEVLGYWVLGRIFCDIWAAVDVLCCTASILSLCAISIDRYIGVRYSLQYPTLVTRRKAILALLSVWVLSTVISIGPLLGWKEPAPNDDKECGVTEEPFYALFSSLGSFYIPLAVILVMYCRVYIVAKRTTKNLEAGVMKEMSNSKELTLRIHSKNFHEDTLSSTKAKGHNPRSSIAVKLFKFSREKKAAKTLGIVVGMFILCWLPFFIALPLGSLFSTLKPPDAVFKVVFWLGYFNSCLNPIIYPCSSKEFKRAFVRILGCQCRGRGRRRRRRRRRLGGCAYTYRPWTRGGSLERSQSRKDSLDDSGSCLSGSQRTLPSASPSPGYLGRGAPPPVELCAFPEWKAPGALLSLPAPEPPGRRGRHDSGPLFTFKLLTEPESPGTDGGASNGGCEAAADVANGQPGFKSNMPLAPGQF
Experimental: as §1

[18] = read-out: Ki #1-#5 (individual assays)
[19] = read-out: log Ki (individual assays) (converted)

In the case of `c1ccc2c(c1)N=C(N1CCNCC1)c1ccccc1N2` [C21, 11-(1-piperazinyl)-5H-dibenzo[b,e][1,4]diazepine], the Ki ([1]; read-out: Ki) is reported as 80.9 nM, the Ki [1, 18] is reported as 64.5 nM and 144 nM and 57 nM and the Ki ([2]; read-out: Ki) is reported as 4940 nM. The Ki [2, 18] was 6850 nM and 4580 nM and 3850 nM, the Ki ([3]; read-out: Ki) was 1770 nM and the Ki [3, 18] was 4750 nM and 809 nM and 1440 nM. The Ki ([4]; read-out: Ki) was 107 nM, the Ki [4, 18] was 104 nM and 77 nM and 152 nM and the “log Ki (individual assays)” value [5] was 5.27 and 5.61 and 5.12 and 5.10 and 5.33. For the same compound, the “pKi (mean)” value [5] was 5.29, the Ki ([5]; read-out: Ki) was 5180 nM and the Ki [5, 18] was 4720 nM and 5310 nM and 2440 nM and 7610 nM and 7980 nM. For the same compound, the Ki ([6]; read-out: Ki) was 47.9 nM, the Ki [6, 18] was 48.2 nM and 57 nM and the Ki [6, 19] was 39.8 nM. The Ki ([7]; read-out: Ki) was 387 nM, the Ki [7, 18] was 685 nM and 241 nM and 373 nM and 363 nM and the Ki ([8]; read-out: Ki) was 1690 nM. The Ki [8, 18] was 1860 nM and 936 nM and 2770 nM, the Ki ([9]; read-out: Ki) was 44.3 nM and the Ki [9, 18] was 58.9 nM and 51 nM. The Ki [9, 19] was 28.8 nM, the Ki ([10]; read-out: Ki) was 972 nM and the Ki [10, 18] was 1190 nM and 785 nM and 983 nM. The Ki ([11]; read-out: Ki) was 2900 nM, the Ki [11, 18] was 4110 nM and 1650 nM and 3620 nM and the Ki ([12]; read-out: Ki) was 2980 nM. The Ki [12, 18] was 6690 nM and 2680 nM and 1470 nM, the Ki [13, 18] was 4.5 nM and the Ki [13, 19] was 3.47 nM and 2.4 nM. It also gave a Ki ([13]; read-out: pKi (mean) (converted)) of 3.39 nM, a Ki ([14]; read-out: Ki) greater than 10000 nM and a Ki [14, 18] greater than 10000 nM. For the same compound, the Ki ([15]; read-out: Ki) was 289 nM, the Ki [15, 18] was 257 nM and 511 nM and 184 nM and the Ki ([16]; read-out: Ki) was 146 nM. The Ki [16, 18] was 246 nM and 139 nM and 91 nM, the “log Ki (individual assays)” value [17] was less than 5 and the Ki ([17]; read-out: Ki) was greater than 10000 nM. It also gave a Ki [17, 18] greater than 10000 nM.
